Where two headings read alike, the source gives them in different places.
Tests used:
Assay in all cases: Enzyme inhibiting activity of MMPs, fluorogenic peptide substrate
Format in all cases: biochemical
MMP-9 = target: T1, MMP-9 (Homo sapiens, UniProt P14780); conditions: substrate MOCAc-Pro-Leu-Gly-Leu-A2Pr(DNP)-Ala-Arg-NH2, fluorescent intensity
T1 construct: purchased Calbiochem (EMD/MERCK Biosciences)
Procedure: (§1) Various human MMPs (MMP-2, MMP-9 and MMP-13) were purchased from Calbiochem (EMD/MERCK Biosciences).
(§2) The enzyme activity of MMPs was measured according to the method described in C. Graham Knight, Frances Willenbrock and Gillian Murphy: A novel coumarin-labelled peptide for sensitive continuous assays of the matrix metalloproteinases: FEBS LETT., 296, (1992), 263-266. As a substrate, MOCAc-Pro-Leu-Gly-Leu-A2Pr(DNP)- Ala-Arg-NH2 (Peptide Institute, Inc. Osaka, Japan) was used, and the following four assays are performed per compound (inhibitor) for measuring the inhibiting activity.
(§3) (A) Substrate (synthetic substrate), enzyme (MMPs), inhibitor
(§4) (B) Substrate (synthetic substrate), inhibitor
(§5) (C) Substrate (synthetic substrate), enzyme (MMPs)
(§6) (D) Substrate (synthetic substrate)
(§7) In each assay, the fluorescent intensity was measured, and inhibition (%) was calculated by the following equation.
(§8) Inhibition (%)=[I−(A−B)/(C−D)]×100
(§9) IC50 indicates a concentration at which inhibition (%) is 50%.

MMP-2 = target: T2, MMP-2 (Homo sapiens, UniProt P08253); conditions: substrate MOCAc-Pro-Leu-Gly-Leu-A2Pr(DNP)-Ala-Arg-NH2, fluorescent intensity
T2 construct: purchased Calbiochem (EMD/MERCK Biosciences)
T2 sequence (P08253 110-660): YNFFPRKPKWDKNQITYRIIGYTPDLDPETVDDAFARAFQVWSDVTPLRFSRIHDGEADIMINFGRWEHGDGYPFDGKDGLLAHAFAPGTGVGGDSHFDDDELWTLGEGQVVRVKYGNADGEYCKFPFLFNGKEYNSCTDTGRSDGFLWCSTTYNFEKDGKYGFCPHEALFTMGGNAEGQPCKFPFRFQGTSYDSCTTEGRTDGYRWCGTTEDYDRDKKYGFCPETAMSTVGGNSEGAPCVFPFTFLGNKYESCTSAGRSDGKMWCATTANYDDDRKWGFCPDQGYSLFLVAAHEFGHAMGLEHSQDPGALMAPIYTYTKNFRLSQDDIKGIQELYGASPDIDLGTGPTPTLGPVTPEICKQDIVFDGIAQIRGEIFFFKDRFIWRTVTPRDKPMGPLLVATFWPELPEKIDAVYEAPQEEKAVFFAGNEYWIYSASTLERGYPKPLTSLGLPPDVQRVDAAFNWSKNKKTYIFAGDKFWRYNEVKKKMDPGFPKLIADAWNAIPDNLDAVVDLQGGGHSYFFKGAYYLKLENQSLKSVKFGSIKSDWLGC
Procedure: as §1, §2, §3, §4, §5, §6, §7, §8, §9

MMP-13 = target: T3, MMP-13 (Homo sapiens, UniProt P45452)
T3 construct: purchased Calbiochem (EMD/MERCK Biosciences)
Procedure: as §1
Since the purchased MMP-13 was Proenzyme, the activated one was used, which was incubated at 37° C. for 2 hours after the successive addition of an assay buffer (containing 50 mM Tris-HCl (pH7.6), 0.3 M NaCl, 10 mM CaCl2, 0.005% Brij35) and APMA (final concentration 1 mM) to the enzyme solution.
as §2, §3, §4, §5, §6, §7, §8, §9

[1] = APMA-activated proenzyme, substrate MOCAc-Pro-Leu-Gly-Leu-A2Pr(DNP)-Ala-Arg-NH2, fluorescent intensity, read-out: IC50 MMP-13
[2] = compounds not described in the Tables, read-out: inhibiting activity for MMP-13

T1 sequence (P14780 94-707): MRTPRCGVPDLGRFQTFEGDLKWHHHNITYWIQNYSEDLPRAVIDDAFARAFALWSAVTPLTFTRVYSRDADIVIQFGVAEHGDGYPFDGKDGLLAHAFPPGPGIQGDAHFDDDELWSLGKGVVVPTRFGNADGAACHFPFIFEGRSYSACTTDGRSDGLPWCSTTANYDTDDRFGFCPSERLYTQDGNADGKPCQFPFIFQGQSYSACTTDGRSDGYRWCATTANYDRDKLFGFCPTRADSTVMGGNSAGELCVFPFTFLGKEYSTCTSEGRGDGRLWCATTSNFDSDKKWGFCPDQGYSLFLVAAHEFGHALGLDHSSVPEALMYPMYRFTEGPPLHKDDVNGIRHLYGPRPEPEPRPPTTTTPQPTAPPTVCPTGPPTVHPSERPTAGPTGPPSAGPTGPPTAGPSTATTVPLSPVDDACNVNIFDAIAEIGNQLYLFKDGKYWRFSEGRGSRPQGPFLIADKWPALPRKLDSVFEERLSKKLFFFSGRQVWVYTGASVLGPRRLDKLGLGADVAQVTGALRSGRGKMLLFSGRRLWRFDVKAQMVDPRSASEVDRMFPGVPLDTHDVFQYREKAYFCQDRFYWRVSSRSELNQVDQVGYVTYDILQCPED

Row | IC50 (MMP-9) | IC50 (MMP-2) | IC50 (MMP-13; [1]) | IC50 (MMP-13; [2]) | Structure (SMILES)
1 | > 10000 nM | 1000 to 10000 nM | 1 nM | – | C[C@@H](NS(=O)(=O)N1CCN(c2ccc(C#Cc3nc(-c4cccc(OCc5ccc(S(C)(=O)=O)cc5)c4)cs3)cc2)CC1)C(=O)O [Compound V-20, (R)-2-[4-(4-{4-[3-(4-methanesulfonylbenzyloxy)-phenyl]-thiazol-2-ylethynyl}-phenyl)-piperazine-1-sulfonylamino]-proponic acid]
2 | > 10000 nM | 1000 to 10000 nM | 3 nM | – | CC(C)[C@@H](NS(=O)(=O)N1CCN(c2ccc(C#Cc3ccc4ccn(Cc5ccncc5)c(=O)c4c3)cc2)CC1)C(=O)O [III-169, (R)-3-methyl-2-{4-[4-(1-oxo-2-pyridin-4-ylmethyl-1,2-dihydroisoquinolin-7-ylethynyl)-phenyl]-piperazine-1-sulfonylamino}-butanoic acid]
3 | > 10000 nM | 100 to 1000 nM | 1 nM | – | CC(C)[C@@H](NS(=O)(=O)N1CCN(c2ccc(C#Cc3ccnc(C(=O)NCc4ccc(S(C)(=O)=O)cc4)c3)cc2)CC1)C(=O)O [III-206, (R)-2-(4-{4-[2-(4-methanesulfonylbenzylcarbamoyl)-pyridin-4-ylethynyl]-phenyl}-piperazine-1-sulfonylamino)-3-methylbutanoic acid]
4 | > 10000 nM | 1000 to 10000 nM | 8 nM | – | CC(C)[C@@H](NS(=O)(=O)N1CCN(c2ccc(C#Cc3ccnc(C(=O)NCc4ccc(F)cc4)c3)cc2)CC1)C(=O)O [III-152, (R)-2-(4-{4-[2-(4-fluorobenzylcarbamoyl)-pyridin-4-ylethynyl]-phenyl}-piperazine-1-sulfonylamino)-3-methylbutanoic acid]
5 | > 10000 nM | 100 to 1000 nM | 1 nM | – | CC(C)[C@@H](NS(=O)(=O)N1CCN(c2ccc(C#Cc3ccnc(C(=O)NCc4ccc(S(N)(=O)=O)cc4)c3)cc2)CC1)C(=O)O [III-201, (R)-3-methyl-2-(4-{4-[2-(4-sulfamoylbenzylcarbamoyl)-pyridin-4-ylethynyl]-phenyl}-piperazine-1-sulfonylamino)-butanoic acid]
6 | > 10000 nM | 1000 to 10000 nM | 11 nM | – | C[C@@H](NS(=O)(=O)N1CCN(c2ccc(C#Cc3ccc4c(c3)c(/C=C/C#N)cn4C)cc2)CC1)C(=O)O [Compound I-114, (R)-2-(4-{4-[3-((E)-2-cyanovinyl)-1-methyl-1H-indol-5-ylethynyl]-phenyl}-piperazine-1-sulfonylamino)-proponic acid]
7 | > 10000 nM | > 10000 nM | 23 nM | – | CC(C)[C@@H](NS(=O)(=O)N1CCN(c2ccc(C#Cc3ccnc(C(=O)NCc4ccc(SC(F)(F)F)cc4)c3)cc2)CC1)C(=O)O [III-222, (R)-3-methyl-2-(4-{4-[2-(4-trifluoromethylsulfanylbenzylcarbamoyl)-pyridin-4-ylethynyl]-phenyl}-piperazine-1-sulfonylamino)-butanoic acid]
8 | – | – | – | < 10 nM | C[C@@H](NS(=O)(=O)N1CCN(c2ccc(C#Cc3cccc(C(=O)NCc4ccccc4)n3)cc2)CC1)C(=O)O [Compound I-18, (R)-2-{4-[4-(6-benzylcarbamoylpyridine 2-ylethynyl)-phenyl]-piperazine-1-sulfonylamino}-proponic acid]
9 | – | – | – | 10 to 100 nM | C[C@@H](NS(=O)(=O)N1CCN(c2ccc(C#Cc3ccc4cccc(/C=C\C#N)c4c3)cc2)CC1)C(=O)O [Compound I-69, (R)-2-(4-{4-[8-((Z)-2-cyanovinyl)-naphthalen-2-ylethynyl]-phenyl}-piperazine-1-sulfonylamino)-proponic acid]
10 | – | – | – | 10 to 100 nM | CO/N=C(/C)c1cccc2ccc(C#Cc3ccc(N4CCN(S(=O)(=O)N[C@H](C)C(=O)O)CC4)cc3)cc12 [Compound I-96, (R)-2-{4-[4-(8-{1-[(Z)-methoxyimino]-ethyl}-naphthalen-2-ylethynyl)-phenyl]-piperazine-1-sulfonylamino}-proponic acid]

Further lines, the molecule ahead of its results:

Row | Structure (SMILES) | IC50 (MMP-9) | IC50 (MMP-2) | IC50 (MMP-13; [1]) | IC50 (MMP-13; [2])
11 | CC(C)Oc1ccc(C#Cc2ccc(N3CCN(S(=O)(=O)N[C@H](C)C(=O)O)CC3)cc2)cc1C(=O)NCc1cccc(Cl)c1 [III-118, (R)-2-(4-{4-[3-(3-chrolobenzylcarbamoyl)-4-isopropoxyphenylethynyl]-phenyl}-piperazine-1-sulfonylamino)-proponic acid] | > 10000 nM | > 10000 nM | 28 nM | –
12 | CCCCC(=O)c1cn(C)c2ccc(C#Cc3ccc(N4CCN(S(=O)(=O)N[C@H](C)C(=O)O)CC4)cc3)cc12 [III-45, (R)-2-{4-[4-(1-methyl-3-pentanoyl-1H-indol-5-ylethynyl)-phenyl]-piperazine-1-sulfonylamino}-proponic acid] | > 10000 nM | > 10000 nM | 13 nM | –
13 | CCC[C@H](NS(=O)(=O)N1CCN(c2ccc(C#Cc3ccnc(C(=O)NCc4ccc(OC)cc4)c3)cc2)CC1)C(=O)O [Compound V-33, (5)-2-(4-{4-[2-(4-methoxybenzylcarbamoyl)-pyridin-4-ylethynyl]-phenyl}-piperazine-1-sulfonylamino)-pentanoic acid] | > 10000 nM | 1000 to 10000 nM | 3 nM | –
14 | CC(C)COc1ccc(C#Cc2ccc(N3CCN(S(=O)(=O)N[C@H](C)C(=O)O)CC3)cc2)cc1C(=O)NCc1ccccc1 [III-121, (R)-2-{4-[4-(3-benzylcarbamoyl-4-isobutoxyphenylethynyl)-phenyl]-piperazine-1-sulfonylamino}-proponic acid] | > 10000 nM | > 10000 nM | 25 nM | –
15 | CC(C)[C@@H](NS(=O)(=O)N1CCN(c2ccc(C#Cc3ccnc(C(=O)NCc4ccc(CNC(=O)OC(C)(C)C)cc4)c3)cc2)CC1)C(=O)O [III-223, (R)-2-[4-(4-{2-[4-(tert-butoxycarbonylaminomethyl)-benzylcarbamoyl]-pyridin-4-ylethynyl}-phenyl)-piperazine-1-sulfonylamino]-3-methylbutanoic acid] | > 10000 nM | 1000 to 10000 nM | 17 nM | –
16 | C[C@@H](NS(=O)(=O)N1CCN(c2ccc(/C=C/c3cccc(C(=O)NCc4ccccc4)c3)cc2)CC1)C(=O)O [Compound I-2, (R)-2-(4-{4-[(E)-2-(3-benzylcarbamoylphenyl)-vinyl]-phenyl}-piperazine-1-sulfonylamino)-proponic acid] | > 10000 nM | 100 to 1000 nM | 3.8 nM | –
17 | C[C@@H](NS(=O)(=O)N1CCN(c2ccc(C#Cc3ccnc(C(=O)NCc4ccccc4)c3)cc2)CC1)C(=O)O [Compound I-19, (R)-2-{4-[4-(2-benzylcarbamoylpyridin-4-ylethynyl)-phenyl]-piperazine-1-sulfonylamino}-proponic acid] | – | – | – | < 10 nM
18 | CSc1cccc2ccc(C#Cc3ccc(N4CCN(S(=O)(=O)N[C@H](C)C(=O)O)CC4)cc3)cc12 [Compound I-82, (R)-2-{4-[4-(8-methylsulfanylnaphthalen-2-ylethynyl)-phenyl]-piperazine-1-sulfonylamino}-proponic acid] | – | – | – | 10 to 100 nM
19 | CC(C)C[C@@H](NS(=O)(=O)N1CCN(c2ccc(C#Cc3ccc4cccc(C(N)=O)c4c3)cc2)CC1)C(=O)O [Compound I-60, (R)-2-{4-[4-(8-carbamoylnaphthalen-2-ylethynyl)-phenyl]-piperazine-1-sulfonylamino}-4-methylpentanoic acid] | – | – | – | 10 to 100 nM
20 | CC(C)[C@@H](NS(=O)(=O)N1CCN(c2ccc(C#Cc3ccc4cccc(C(N)=O)c4c3)cc2)CC1)C(=O)O [Compound I-93, (R)-2-{4-[4-(8-carbamoylnaphthalen-2-ylethynyl)-phenyl]-piperazine-1-sulfonylamino}-3-methylbutanoic acid] | – | – | – | 10 to 100 nM
21 | C[C@@H](NS(=O)(=O)N1CCN(c2ccc(C#Cc3ccc4cccc(C(=O)NCCNC(=O)OC(C)(C)C)c4c3)cc2)CC1)C(=O)O [Compound I-62, (R)-2-(4-{4-[8-(2-tert-butoxycarbonylaminoethylcarbamoyl)-naphthalen-2-ylethynyl]-phenyl}-piperazine-1-sulfonylamino)-proponic acid] | – | – | – | 10 to 100 nM

From US20100099676A1 (SHIONOGI & CO., LTD., priority 2006, published 2010)
